Laboratory results as given in patent publication US10919844B2, “Antibacterials and/or modulators of biofilm formation and methods of using the same” (Indiana University Research and Technology Corporation, priority 2015, dated 2021).
“Also recorded” adds a separate entry of the source.

Experiments:
Pseudomonas aeruginosa = experiment: P. aeruginosa biofilm formation assay (K357 biofilm assay, crystal violet OD readout); assay type: cell-based; details: for activity in preliminary screens: FIG. 1, compounds in red; for activity in the Biofilm Assay: FIG. 23; for activity of purified sample in the biofilm assay: FIGS. 26-28
Description: A straightforward biological assay was developed to provide for the study these important bacterial biofilm communities. This assay also provided an efficient means for screening for compounds that have an effect on bacterial growth and/or biofilm formation.
The racemic amino acid derivatives 1 (synthesized in row A of each Bill-Board) are then screened for biological activity (antibacterial activity in a Kirby-Bauer disc plate assay) and/or K357 laboratory (assay for biofilm formation by Pseudomonas aeruginosa).
Referring now to FIG. 3, reproducible P. aeruginosa Biofilm Assays were carried out using newly synthesized twenty-one “unnatural” amino acids. See George A. O'Toole, Microtiter Dish Biofilm Formation Assay, J. VIS EXP. 2011; (47): 2437, disclosures of which are incorporated by reference in its entirety to the extent that they are not inconsistent with the explicit teachings of this specification.
Referring to FIGS. 34-35, all newly synthesized compounds prepared according to the schemes described above were assayed for biofilm formation in multiplicate 24 well plates at a screening dose of 20 μg/mL using crystal violet optical density (OD) readings as the readout. Results were expressed as % biofilm formation relative to a control (control=bacteria alone=100% biofilm formation). The procedure for the biofilm assay was the same as that used by students in the K357 biofilm laboratory.
Referring now to FIGS. 36-38, all compounds assayed in either 96 well or 24 well plates at a screening dose of either 20 or 40 μg/mL, using a biofilm assay with crystal violet optical density (OD) readings as the readout. Results were expressed as % biofilm formation (control=bacteria alone=100% biofilm formation). The procedure for the biofilm assay was the same as that used by students in the K357 biofilm laboratory.

[1] = water-solubility noted during extractive work-up; assay type: physicochemical; details: basic aqueous phase, extraction with dichloromethane

NC(Cc1ccccc1F)C(=O)O (stereo not shown) [Compound 2-F, 2-Amino-3-(2-fluorophenyl)propanoic acid]
activity in preliminary screens (Pseudomonas aeruginosa): showed activity
activity in the Biofilm Assay (Pseudomonas aeruginosa): showed activity
potency in modulating/inhibiting biofilm formation (SAR studies) (Pseudomonas aeruginosa): potent activity
activity of purified sample in the biofilm assay (Pseudomonas aeruginosa): active in a dose dependent manner
activity of un-purified samples in the K357 biofilm assay (Pseudomonas aeruginosa): active

NC(Cc1ccc(F)cc1)C(=O)NCCN1CCOCC1 (stereo not shown) [Compound 5n, 2-Amino-3-(4-fluorophenyl)-N-(2-morpholinoethyl)propanamide]
water-solubility [1]: Appreciable water-solubility

NC(Cc1ccc(F)cc1)C(=O)N1CCCC1 (stereo not shown) [Compound 5p, 2-Amino-3-(4-fluorophenyl)-1-(pyrrolidin-1-yl)propan-1-one]
water-solubility [1]: Appreciable water-solubility

NC(Cc1ccc(F)cc1)C(=O)O (stereo not shown) [Compound 4-F, 2-Amino-3-(4-fluorophenyl)propanoic acid]
activity in preliminary screens (Pseudomonas aeruginosa): showed activity
activity in the Biofilm Assay (Pseudomonas aeruginosa): showed activity
potency in the biofilm assay compared with tobramycin (Pseudomonas aeruginosa; FIG. 24, comparator tobramycin): as potent as tobramycin
potency in modulating/inhibiting biofilm formation (SAR studies) (Pseudomonas aeruginosa): potent activity
activity of purified sample in the biofilm assay (Pseudomonas aeruginosa): active in a dose dependent manner; also recorded: confirmed this activity
activity of un-purified samples in the K357 biofilm assay (Pseudomonas aeruginosa): active

NC(=O)C(N)Cc1ccc(F)cc1 (stereo not shown) [4-fluorophenylalanine amide, 2-Amino-3-(4-fluorophenyl)propanamide]
potency in modulating/inhibiting biofilm formation (SAR studies) (Pseudomonas aeruginosa): very potent inhibitor

NC(Cc1ccc(F)c(F)c1)C(=O)O (stereo not shown) [3,4-F2, 2-Amino-3-(3,4-difluorophenyl)propanoic acid]
activity in the Biofilm Assay (Pseudomonas aeruginosa): showed activity
potency in modulating/inhibiting biofilm formation (SAR studies) (Pseudomonas aeruginosa): potent activity
activity of purified sample in the biofilm assay (Pseudomonas aeruginosa): active in a dose dependent manner

NC(Cc1cccc(F)c1)C(=O)O (stereo not shown) [Compound 3-F, 2-Amino-3-(3-fluorophenyl)propanoic acid]
activity in preliminary screens (Pseudomonas aeruginosa): showed activity
activity in the Biofilm Assay (Pseudomonas aeruginosa): showed activity
potency in modulating/inhibiting biofilm formation (SAR studies) (Pseudomonas aeruginosa): potent activity
activity of purified sample in the biofilm assay (Pseudomonas aeruginosa): active in a dose dependent manner

N[C@@H](Cc1ccc(I)cc1)C(=O)O [Compound 4-I]
activity in preliminary screens (Pseudomonas aeruginosa): showed activity
